Source: patent US20260258330A1, “USE OF AT LEAST ONE […] A BEVERAGE, IN […] ALCOHOLIC BEVERAGE, AS A […] […]” (priority 2023, published 2026)
Where two headings read alike, the source gives them in different places.

Legend:
[1] = system: Saccharomyces cerevisiae; type: cell-based
Description: For this example, 10 mL of apple juice, grape juice or multifruit juice was inoculated with a strain of Saccharomyces cerevisiae at 60,000 cells per mL, that is a deposit of 17 μL of inoculum per 10 ml tube for Ci at T0=[…].
These inoculated juices were incubated statically at 20° C., under subdued light, after having been pre-treated as follows: • 1. Untreated (Negative control) • 2. […] Ethanol 2.37% • 4. Ethanol 4.74% • 5. 100 ppm Chitosan • 6. 9 ppm Amphidinol 18 (AM18) • 7. 18 ppm Amphidinol 18 (AM18) • 8. 36 ppm Amphidinol 18 (AM18)
The amphidinol concentration is obtained using the product according to the invention obtained from Example 1. The amount of product according to the invention is adjusted to obtain the desired amphidinol concentrations.
The biomass of Saccharomyces populations was measured by optical density reading at 600 nm.

[2] = system: Acetobacter aceti; experiment: Minimum inhibitory concentration of peak 0 purified fraction, OD550 (Example 8); type: cell-based; conditions: 40, 20 and 10 pp: of AM18 (tested 40 to 5 ppm); MRS medium, 10^5 CFU/mL
Description: The minimum inhibitory concentration (MIC) of peak 0 described in FIG. 5D was determined for Acetobacter aceti according to the protocol described in Example 2 and FIG. 1B.
OD550 nm at 0, 3 and 6 days (T0, T3 and T6) was measured after incubation at 28° C. of yeasts at 10^5 CFU/mL in the presence of MRS medium alone (negative control), methanol (MEtOH) or in the presence of peak 0 at a dilution of 1:32 to 1:256 corresponding to concentrations of 40 to 5 ppm of amphidinol 18. The product according to the invention at 0.25 g/L was also tested under the same conditions. Two replicas (rep1 and rep2) were carried out.

[3] = Degradability of amphidinol 18 in light at room temperature, HPLC (Example 4); type: physicochemical; conditions: product at one gram per liter in 70% ethanol
Source text: Regularly, the concentration of amphidinol 18 in the product according to the invention has been measured by high-performance liquid chromatography.

[4] = system: Brettanomyces bruxellensis NL6300; experiment: Minimum inhibitory concentration of peak 0 purified fraction, OD550 (Example 6); type: cell-based; conditions: all concentrations (40 to 5 ppm) except the 5 ppm concentration of AM18
Description: The minimum inhibitory concentration of peak 0 (purified fraction) was determined for two strains of Brettanomyces bruxellensis (NL6293 and NL6300) according to the protocol described in Example 2 and FIG. 1B.
OD550 nm at T=0 days, T=3 days and T=6 days was measured after incubation of yeasts at 28° C. in the presence of YPD medium alone (negative control), methanol or in the presence of peak 0 at dilutions ranging from 1:32 to 1:256 corresponding to concentrations of 40 to 5 ppm of amphidinol 18. The product according to the invention at 0.25 g/L was also tested (positive control). Two replicas were produced.

[5] = system: three strains of Brettanomyces bruxellensis; experiment: Growth of three Brettanomyces bruxellensis strains with product or inactivated product, optical density at 550 nm (Example 4); type: cell-based; conditions: conclusion from degradation and growth tests of Example 4
Description: Two replicas were made for each condition.
Yeast growth is measured by reading the optical density at 550 nanometers.

[6] = system: Saccharomyces cerevisiae; experiment: Minimum inhibitory concentration of peak 0 purified fraction, OD550 (Example 7); type: cell-based; conditions: 40 and 20 ppm of AM18 (tested 40 to 5 ppm); 2.5·10^4 CFU/mL
Description: The minimum inhibitory concentration (MIC) of peak 0 described in FIG. 5D was determined for Saccharomyces cerevisiae according to the protocol described in Example 2 and FIG. 1B.
OD550 nm at 0, 3 and 6 days (T0, T3 and T6) was measured after incubation at 28° C. of yeasts at 2.5·10^4 CFU/mL in the presence of YPD medium alone (negative control), methanol (MEtOH) or in the presence of peak 0 at a dilution of 1:32 to 1:256 corresponding to concentrations of 40 to 5 ppm of amphidinol 18. The product according to the invention at 0.25 g/L was also tested under the same conditions. Two replicas (rep1 and rep2) were produced.

[7] = Degradation kinetics of amphidinol 18 in wine, HPLC (Example 10); type: physicochemical; conditions: product doses containing 60 ppm to 480 ppm amphidinol 18; up to day 44
Description: Different doses of the product according to the invention, containing from 60 ppm to 480 ppm of amphidinol 18, were inoculated in the wine. The amount of amphidinol 18 was determined by HPLC assay over time, up to day 44 (T44). The percentage of amphidinol 18 with respect to the initial dose was assessed over time.

Structure (SMILES): CCO [Ethanol, reference compound]
- yeast population growth [1]: no yeast population growth

Structure (SMILES): C=C/C=C/CC/C=C/C=C/C=C/CC/C=C/[C@H](O)[C@H](O)[C@@H]1O[C@@H]([C@H](O)[C@H](O)C(=C)CC[C@@H](O)[C@H]2C[C@@H](O)[C@@H](O)[C@H]([C@@H](O)[C@H](O)/C=C(\C)CCC(O)CC(O)C(O)C(C)CC(O)C(O)CC(C)CCC(O)CC(=O)CC(O)CCCC(O)CCCCC(O)CO)O2)C[C@@H](O)[C@H]1O (stereo partly drawn) [amphidinol 18]
- effectiveness against Acetobacter aceti [2]: effective
- growth of Saccharomyces populations ([1]; 3 types of fruit juice): completely preventing the growth
- Average D0, optical density at 600 nm ([1]; Apple juice, 9 ppm AM18): −0.1305
- Average D1, optical density at 600 nm ([1]; Apple juice, 9 ppm AM18): −0.1655
- Average D2, optical density at 600 nm ([1]; Apple juice, 9 ppm AM18): 0.1385
- Average D3, optical density at 600 nm ([1]; Apple juice, 9 ppm AM18): 0.6495
- Average D0, optical density at 600 nm ([1]; Apple juice, 18 ppm AM18): 0.0835
- Average D1, optical density at 600 nm ([1]; Apple juice, 18 ppm AM18): 0.0055
- Average D2, optical density at 600 nm ([1]; Apple juice, 18 ppm AM18): −0.0505
- Average D3, optical density at 600 nm ([1]; Apple juice, 18 ppm AM18): −0.091
- Average D0, optical density at 600 nm ([1]; Apple juice, 36 ppm AM18): −0.012
- Average D1, optical density at 600 nm ([1]; Apple juice, 36 ppm AM18): −0.007
- Average D2, optical density at 600 nm ([1]; Apple juice, 36 ppm AM18): −0.062
- Average D3, optical density at 600 nm ([1]; Apple juice, 36 ppm AM18): 0.3515
- Average D0, optical density at 600 nm ([1]; Grape juice, 9 ppm AM18): 0.0755
- Average D1, optical density at 600 nm ([1]; Grape juice, 9 ppm AM18): 0.0375
- Average D2, optical density at 600 nm ([1]; Grape juice, 9 ppm AM18): 0.0315
- Average D3, optical density at 600 nm ([1]; Grape juice, 9 ppm AM18): −0.084
- Average D0, optical density at 600 nm ([1]; Grape juice, 18 ppm AM18): 0.2065
- Average D1, optical density at 600 nm ([1]; Grape juice, 18 ppm AM18): 0.175
- Average D2, optical density at 600 nm ([1]; Grape juice, 18 ppm AM18): 0.154
- Average D3, optical density at 600 nm ([1]; Grape juice, 18 ppm AM18): 0.0515
- Average D0, optical density at 600 nm ([1]; Grape juice, 36 ppm AM18): −0.1485
- Average D1, optical density at 600 nm ([1]; Grape juice, 36 ppm AM18): −0.174
- Average D2, optical density at 600 nm ([1]; Grape juice, 36 ppm AM18): −0.2285
- Average D3, optical density at 600 nm ([1]; Grape juice, 36 ppm AM18): −0.2465
- Average D0, optical density at 600 nm ([1]; Multifruit juice, 9 ppm AM18): −0.006
- Average D1, optical density at 600 nm ([1]; Multifruit juice, 9 ppm AM18): −0.028
- Average D2, optical density at 600 nm ([1]; Multifruit juice, 9 ppm AM18): −0.0705
- Average D3, optical density at 600 nm ([1]; Multifruit juice, 9 ppm AM18): 0.0995
- Average D0, optical density at 600 nm ([1]; Multifruit juice, 18 ppm AM18): 0.002
- Average D1, optical density at 600 nm ([1]; Multifruit juice, 18 ppm AM18): −0.0365
- Average D2, optical density at 600 nm ([1]; Multifruit juice, 18 ppm AM18): −0.0155
- Average D3, optical density at 600 nm ([1]; Multifruit juice, 18 ppm AM18): 0.033
- Average D0, optical density at 600 nm ([1]; Multifruit juice, 36 ppm AM18): −0.009
- Average D1, optical density at 600 nm ([1]; Multifruit juice, 36 ppm AM18): 0.034
- Average D2, optical density at 600 nm ([1]; Multifruit juice, 36 ppm AM18): 0.008
- Average D3, optical density at 600 nm ([1]; Multifruit juice, 36 ppm AM18): 0.018
- amphidinol 18 concentration of the product ([3]; T=0 days): 24 mg/L
- amphidinol 18 concentration of the product ([3]; T=120 days): ~0 mg/L
- effectiveness against strain NL6300 [4]: effective
- effectiveness for controlling and/or limiting the growth of Brettanomyces bruxellensis [5]: particularly effective
- effectiveness against Saccharomyces cerevisiae [6]: effective
- degradation of amphidinol 18 in wine [7]: degrades steadily
